Results from patent publication US7119071B2, “Amino terminal substance P compositions and methods for using the same” (University of Medicine and Dentistry of New Jersey, priority 2002, dated 2006).

Legend:
Type in all cases: cell-based, human
TGF-β in BM stroma = experiment: Induction of TGF-β in BM stroma (CCL 64 growth inhibition bioassay); settings: for TGF-β (pg/ml) 1st stimulation: BM stroma, 16 h, secreted and cell-bound, mean±SD; for TGF-β (pg/ml) 1st stimulation / TGF-β (pg/ml) 2nd stimulation: 10 nM SP(1-4) or 10 ng/ml SCF; for TGF-β (pg/ml) 2nd stimulation: BM stroma re-stimulated for 16 h after 16 h 1st stimulation
Procedure: (§1) Stromal cultures were prepared with BM aspirates from healthy donors as described^24. Briefly, stromal cells were cultured at 33° C. and at day 3, the granulocytes and red blood cells were removed by Ficoll-Hypaque density gradient. Cultures were reincubated with weekly replacement of 50% culture media until confluence. Cytokine, NK receptor and c-kit expressions were studied in confluent stroma, stimulated with 10 nM SP(1-4) and/or 10 ng/ml SCF. Stroma was stimulated in 3 ml sera-free cc-MEM, supplemented with insulin-transferring-selenium-A (Life Technologies, Grand Island, N.Y.). At 16 h, stromal monolayers were washed with sera-free α-MEM and then re-incubated for 16 h with media, 10 nM SP(1-4) or 10 ng/ml SCF. Controls included stroma cultured for 16 h or 32 h in media alone. Time-course and dose-response curves established the optimal concentrations of SCF and SP(1-4).
Growth inhibition of CCL 64 cells forms the basis of the bioassay used to quantitate active TGF-β^25. Each sample was tested in triplicate with […] of supernatants. TGF-β levels were determined from a standard curve established with TGF-β concentrations ranging from 0.001 to 10 ng/ml vs. cell concentration. The presence of TGF-β1 was verified by reanalyses of samples containing >20 ng/ml TGF-β with neutralizing anti-hTGF-β1^25. Neutralization was determined if the anti-TGF-β1 reversed the growth inhibitory effect of the supernatants. • 1. Biopanning of Phage Display Library and Selection of Clones
BM stroma was stimulated with 10 nM SP(1-4) or 10 ng/ml SCF (1st stimulation). After 16 h, cells were harvested or cultures were re-stimulated for 16 h (2nd stimulation) with 10 nM SP(1-4) or 10 ng/ml SCF. TGF-β and TNF-α levels were determined in the total volume of supernatants and cell extracts, obtained from one flask of stromal cells. The results are represented as the mean±SD of the total concentration (secreted and cell-bound/106 stromal cells). p<0.05 vs. unstimulated or SCF.

CFU-GM = experiment: Clonogenic assay for CFU-GM in sera-free cultures; settings: n=7
Procedure: BM aspirate was obtained from the posterior iliac crest of normal healthy volunteers. Mononuclear cells were isolated by Ficoll-Hypaque density gradient and then assayed for CFU-GM in sera-free cultures as described^3. Briefly, 10^5 BM mononuclear cells/ml were plated in methylcellulose with 10 or 1 nM of SP(1-4). Each experimental point was assayed in duplicate. Cultures were assayed in parallel in the presence or absence of anti-TGF-β or anti-TNF-α, each ranging between 2 μg/ml and 10 ng/ml. Cultures contained 3 U/ml of rhGM-CSF. At day 10, the number of colonies with >20 cells were counted.

NK-1 mRNA = experiment: Quantitative RT-PCR for NK-1 mRNA in BM stroma; settings: n=6; for NK-1 mRNA, 1st stimulation: BM stroma, 10 nM SP(1-4) or 10 ng/ml SCF for 16 h, mean±SD; for NK-1 mRNA, 2nd stimulation: BM stroma washed and re-stimulated for 16 h after 16 h 1st stimulation
Procedure: as §1
(§2) Quantitative RT-PCR for NK-1, NK-2 and β-PPT-I mRNA was performed as described^3, 24. Briefly, 2 μg of total RNA from BM stroma was reverse transcribed and 200 ng cDNA used in PCR reactions with standard DNA at log10 fold dilutions ranging between 10^−2 and 10^−6 attomole/L. PCR products (10 μl) were separated on agarose containing ethidium bromide. The DNA was scanned with a Fluorimager (Molecular Dynamics, Sunnyvale, Calif.) and the densities analyzed with ImageQuant software (Molecular Dynamics, version 5.2). A standard curve was established for each unknown sample: Band densities of unknown/standard DNA vs. Log10 standard DNA concentration. The concentration of the unknown sample was read at the point where the ratio of the unknown and standard were equivalent. Construction of DNA standards was previously described^24. • 1. Immunofluorescence for NK Receptors
(§3) BM stroma was stimulated with 10 nM SP(1-4) or 10 ng/ml SCF for 16 h (1st stimulation). After this, cultures were washed and then re-stimulated further for 16 h with similar concentrations of SP(1-4) or SCF (2nd stimulation). NK-1, NK-2 and β-PPT-I mRNA levels were quantitative by RT-PCR. The results are represented as the mean±SD, n=6. Each experiment was performed with a different BM donor. p<0.05: * vs. unstimulated or SP(1-4). […]: ** vs. unstimulated or SP(1-4).

NK-2 mRNA = experiment: Quantitative RT-PCR for NK-2 mRNA in BM stroma; settings: n=6; for NK-2 mRNA, 1st stimulation: BM stroma, 10 nM SP(1-4) or 10 ng/ml SCF for 16 h, mean±SD; for NK-2 mRNA, 2nd stimulation: BM stroma washed and re-stimulated for 16 h after 16 h 1st stimulation
Procedure: as §1, §2, §3

β-PPT-I mRNA = experiment: Quantitative RT-PCR for β-PPT-I mRNA in BM stroma; settings: n=6; for β-PPT-I mRNA, 1st stimulation: BM stroma, 10 nM SP(1-4) or 10 ng/ml SCF for 16 h, mean±SD; for β-PPT-I mRNA, 2nd stimulation: BM stroma washed and re-stimulated for 16 h after 16 h 1st stimulation
Procedure: as §1, §2, §3

SP-IR = experiment: Competitive ELISA for SP-immunoreactivity (SP-IR) in stimulated BM stroma; settings: 10 ng/ml SCF, 5×10^6 stroma
Procedure: Competitive ELISA quantitated SP-IR as described^3. Briefly, Immulon 96-well plates (Dynatech Laboratories Inc., Chantilly, Va.) were precoated with streptavidin and then incubated with biotinylated SP (Chiron Mimotopes, Emeryville, Calif.). Equal volumes (50 μl) of unknown samples and optimum rabbit anti-SP were added to quadruplicate wells. Each sample was assayed as undiluted and three serial dilutions. Complexed anti-SP was detected with Alk Phos-conjugated goat anti-rabbit IgG and Sigma 104 phosphatase substrate. SP-IR levels were calculated from a standard curve developed with O.D. at 405 nm vs. 12 serial dilutions of known SP concentrations, ranging from 100 to 0.08 pg/ml.
Total RNA from unstimulated and stimulated (10 ng/ml SCF) BM stroma was analyzed for steady state NEP mRNA levels by northern analyses. The results shown in FIG. 4A indicate single bands at the predicted size of 1.8 kb. […] Analyses for SP and SP(1-4) were performed at different times using Ciphergen's ProteinChip Arrays. ELISA determined the levels of SP-IR in the supernatant and cell extracts of the stimulated stroma (5×10^6 stroma). An affinity protein chip with mobilized anti-SP determined the presence of SP(1-4) in extracts from 48 h-stimulated stroma. […] At 24 h, the total levels of SP-IR (supernatants and cell extracts) in stimulated stroma were 185±8 ng. SP levels were reduced to 12±5 ng at 48 h and to baseline levels (<2 ng) at 72 h (Table 3).

NEP mRNA = experiment: Northern analysis of steady state NEP mRNA in BM stroma; settings: 10 ng/ml SCF, FIG. 4A
Procedure: Northern analyses for steady state NEP and NK-1 mRNA were performed as described^28. For NEP mRNA, stromal cells were stimulated with SCF for 16 h in sera-free α-MEM supplemented with Insulin-Transferring-Selenium-A. At different times after, total RNA was extracted and 10 μg used for northern analyses. Membranes were consecutively hybridized with [α-^32P]-dATP-labeled cDNA probes for NEP and 18S rRNA as described^3. NK-1 mRNA was determined with total RNA from stromal cultures that were sequentially stimulated with SCF and SP(1-4), described above. The cDNA for NK-1 is previously described^29. NK-2 cDNA was prepared by RT-PCR with total RNA from BM stroma as template and the same primers used for quantitative RT-PCR (described above). The NK-2 fragment, which was equivalent to 274 bp was subcloned into pNoTA/T7 (5 Prime→3 Prime, Boulder, Colo.). The cDNA for human NEP sand 18S rRNA were purchased from American Type Culture Collection (Manassas, Va.).
Total RNA from unstimulated and stimulated (10 ng/ml SCF) BM stroma was analyzed for steady state NEP mRNA levels by northern analyses. The results shown in FIG. 4A indicate single bands at the predicted size of 1.8 kb. […] Analyses for SP and SP(1-4) were performed at different times using Ciphergen's ProteinChip Arrays. ELISA determined the levels of SP-IR in the supernatant and cell extracts of the stimulated stroma (5×10^6 stroma). […]

NK-1 receptor = experiment: Immunofluorescence for SP-binding sites (NK-1) in BM stroma; settings: 10 ng/ml SCF and/or 10 nM SP(1-4), FIG. 2
Procedure: (§4) BM stroma was stimulated with 10 ng/ml of SCF. At 24 h, cells were washed and then immediately incubated at 4° C. for 2 h with 200 ng/ml of biotin-SP or biotin-NK-A. After this, cells were labeled with FITC-avidin for 30 min and then examined for fluorescence intensity with an Olympus Provis AX-70 at 480±40 nm/excitation and 535±50 nm/emission. […] The optimal experimental conditions were determined in dose-response and time-course studies. Specificity of binding by SP or NK-A was studied in competition labeling with the pan-tachykinin antagonist, spantide. • 2. TNF-α determination
(§5) Since NK-1 and NK-2 receptors mediated the hematopoietic effects of the tachykinins^5, this section describes the studies and their results designed to further determine the interacting receptor for SP(1-4). Due to the lack of specific antibodies to the human NK-1 and NK-2 receptors, their detection by immunofluorescence was performed with the preferred ligand that was conjugated to biotin: SP for NK-1 and NK-A for NK-2^12. Spantide, a pan-tachykinin antagonist that competes with the ligand for NK receptor binding was used to determine the specificity of binding.

NK-2 receptor = experiment: Immunofluorescence for NK-A-binding sites (NK-2) in BM stroma; settings: 10 ng/ml SCF and/or 10 nM SP(1-4), FIG. 2
Procedure: as §4, §5

c-kit = experiment: Immunofluorescence for c-kit in BM stroma; settings: 10 ng/ml SCF, 6 h to 24 h, dim in unstimulated stroma
Procedure: The relative expression of c-kit in BM stroma was determined by immunofluorescence. BM stroma was cultured on coverslips (Fisher Scientific, Springfield, N.J.) and then stimulated with 10 ng/ml of SCF. At different times after cell stimulation, cells were labeled with 50 ng/ml of biotinylated goat anti-c-kit and FITC-avidin. Non-specific binding was determined with biotinylated non-immune goat anti-IgG. Cells were immediately examined on an OlympusProbis microscope (New York/New Jersey Scientific, Inc., Middlebush, N.J.).

Substance | TGF-β, stimulated BM stroma (TGF-β in BM stroma; 1st stimulation, text citing Table 1) [pg] | TGF-β (pg/ml) 1st stimulation (TGF-β in BM stroma) | percent inhibition on CFU-GM (CFU-GM; 1 nM SP(1-4)) [%] | percent inhibition on CFU-GM (CFU-GM; 10 nM SP(1-4)) [%] | NK-1 mRNA, 1st stimulation (NK-1 mRNA) | NK-2 mRNA, 1st stimulation (NK-2 mRNA) | β-PPT-I mRNA, 1st stimulation (β-PPT-I mRNA) | NK-1 mRNA, 2nd stimulation (NK-1 mRNA) | total levels of SP-IR (supernatants and cell extracts) (SP-IR; 24 h, unstimulated <2 ng) [ng] | total levels of SP-IR (supernatants and cell extracts) (SP-IR; 48 h) [ng] | total levels of SP-IR (supernatants and cell extracts) (SP-IR; 72 h) [ng] | steady state NEP mRNA (northern band) (NEP mRNA; 16 h and 24 h) | steady state NEP mRNA (northern band) (NEP mRNA; 48 h) | NK-1 expression (biotin-SP binding) (NK-1 receptor) | NK-2 expression (biotin-NK-A binding) (NK-2 receptor) | fluorescence intensity of c-kit labeling (c-kit) | TGF-β (pg/ml) 2nd stimulation (TGF-β in BM stroma) | NK-2 mRNA, 2nd stimulation (NK-2 mRNA) | β-PPT-I mRNA, 2nd stimulation (β-PPT-I mRNA) | TGF-β levels after 2nd stimulation (TGF-β in BM stroma; 1st stimulation SP(1-4), 2nd stimulation 16 h later, text citing Table 1) [pg]
Arg-Pro-Lys-Pro (RPKP; listed as Homo sapiens) [SP(1-4), tetrapeptide resulting from degradation of SP by endopeptidases such as NEP] | 90 ± 15 | *90 ± 15 pg/ml | 55±4 | 65±6 | <1 molecules/μg total RNA | **510 ± 15 | <1 | – | – | – | – | – | – | – | – | – | – | – | – | –
SCF: stem cell factor, hematopoietic stimulator cytokine purchased from R&D Systems | – | <5 pg/mL | – | – | *1550 ± 26 molecules/μg total RNA | 17 ± 3 | 640 ± 15 | 1480±34 molecules/μg total RNA | 185 ± 8 | 12 ± 5 | < 2 | Strong bands | no detectable band | SP binds to stromal cells | did not bind | increased to bright | – | – | – | –
SCF→SCF: 1st and 2nd stimulation with 10 ng/ml SCF | – | – | – | – | – | – | – | *1480 ± 34 molecules/μg total RNA | – | – | – | – | – | – | – | – | <5 pg/mL | 10 ± 2 | 45 ± 4 | –
SP(1-4)→SP(1-4): 1st and 2nd stimulation with 10 nM SP(1-4) (RPKP; Substance P; UniProt P20366 58-61, looked up, fragment) | – | – | – | – | – | – | – | <1 molecules/μg total RNA | – | – | – | – | – | – | – | – | *64 ± 4 pg/ml | **484 ± 10 | <1 | 64 ± 4
